From patent US10967000B2, “Cell-penetrating peptide, conjugate comprising same and composition comprising same” (GemVax & KAEL Co., Ltd., priority 2012, dated 2021)
No end group written: not given here. *: point of attachment. FITC = O=C1OC2(c3ccc(O)cc3Oc3cc(O)ccc32)c2ccc(NC(=S)*)cc21

Key:
[1] = tested on: hPBMC; test: Cell penetrating property after treatment with various antibodies; assay type: cell-based, human
Procedure: The fact that HSP70/90 plays an important role in cell penetrating property of Pep1 was analyzed using HSP70/90 antibody. Antibodies of GAPDH, HSP70, HSP90 and enolase were treated in PBMC separated from human blood, lymphocyte, and Jurkat to perform flow cytometry. Antibodies of GAPDH and enolase were used as control.
(§1) To compare and analyze the cell penetrating property of the peptide using various various antibodies, HSP70, enolase, GAPDH (santacruz), HSP90 antibodies were used. Cells were treated with heparin (10 μg/ml), methyl beta cyclodextrin (5 mM), nocodazole (20 μM), Brefeldin A (10 μM), cytochalasin F (5 μM) or choloroqune (100 μM) an hour before cells were cultured by the peptide. After then, cells were washed with PBS, peptide treatment was performed by flow cytometry analysis as the same method described in Example 2. Anti-HSP70, anti-Enolase and anti-GAPDH antibodies were purchased from Santacruz and anti-HSP90 antibody as purchased from Abcam. To analyze the role of each protein in penetration into cells, cells were treated with antibodies corresponding to the proteins with the same method.

[2] = tested on: Huh7, HepG2, CHO, bmDC; test: Flow cytometry and confocal analysis depending on location of FITC; assay type: cell-based; details: fluorescence microscope
Procedure: (§2) The cell line was divided in a 6-well plate and cultured in a medium containing 10% fetal bovine serum (Invitrogen, USA), 100 μg/ml penicillin, 100 units/ml streptomycin at 37° C., 5% CO2 incubator for 12 hours. After washing the cell line with PBS, starvation was induced in a Minimum Essential Medium for an hour. 20 uM of each carrier peptide was treated and cultured at 37° C. for an hour. After repeating the step of washing the cells with PBS for three times, Trypsin-EDTA was treated form 10 mins at 37° C. to separate the carrier peptide on the outside of the cell. cells were collected with refrigerated PBS and centrifugation was performed to repeat the step of washing the cells for three times. After then, the cells were suspended in 0.5 ml of PBS containing 4% Paraformaldehyde and fluorescence of the cells was analyzed using FACS Calibur (Becton Dickinson). The cellular uptake aspect of control and various peptides combined with FITC was compared and analyzed by MFI (Mean Fluorescence Intensity).
To investigate cell penetrating property of PEP1 in various cell lines, flow cytometry and Confocal microscope analysis were performed using a conjugate of PEP1 combined with FITC at N, and C-terminal of the peptide. The analytical method used was same as described in above (1) HeLa cell line analysis. The cell lines used were Huh7, HepG2, CHO, bmDC. […] (FIG. 14)

[3] = tested on: luciferase in Huh7 cells; test: Luciferase assay with siRNA-CPP conjugates, Huh7; assay type: cell-based, human; details: Huh cell line, siRNA 400 nM, 16 hours
Procedure: Huh7 (human hepatocellular carcinoma) cells obtained from ATCC was cultured in a RPMI 1640 medium (Hyclon) containing 10% fetal bovine serum (Invitrogen Co., Carlsbad, Calif., USA), […] L-glutamine, 100 ug/ml penicillin and 100 units/ml of streptomycin at 37° C., 5% CO2 incubator.
(§3) 2×10^5 of Huh7 cells were inserted into each well of a 24 well plate and were grown. Transient transfection on the cells was performed using 2 ug of luciferase objective DNA and lipofectamin 2000 (Invitrogen Co., Carlsbad, Calif., USA). After 4 hours, lipofectamin 2000 was perfectly washed with PBS several times; siRNA of final concentration of […] was treated in 500 ul of Opti-MEM (Invitrogen Co., Carlsbad, Calif., USA) and was reacted at 37° C. incubator for 16 hours. To terminate the reaction, cells were washed with PBS and proteins were lysed using Reporter Lysis Buffer (Progema Co., Madison, Wis., USA) solution and the luminescence was measured by luminometer (Turner BioSystem, Sunnyvale, Calif., USA) using luciferase reagent (Promega Co., Madison, Wis., USA). Efficacy of siRNA was corrected by Bradford protein assay.

[4] = tested on: Jurkat, THP1, Raji, K562; test: Cell penetrating property depending on concentration, temperature and time in enriched cell lines; assay type: cell-based, human
Description: (§4) Jurkat (Human T cell line), THP1 (Human mononuclear cell line), Raji (Human B cell line), K562 cell line (Human Leukemia cell line) were used as enriched cell line to treat the peptide depending on concentrations, temperature and time and to analyze the cell penetrating property of the peptide. […] There was no difference in cell penetrating property of PEP1 in all cell lines depending on temperature.

[5] = tested on: human PBMC; test: Flow cytometry after chemical treatment, human PBMC; assay type: cell-based; details: whole PBMC, chemical treatment an hour before peptide
Procedure: With PBMC separated from human blood, chemical treatment utilization analysis was performed to verify a mechanism of cell penetration. Concentration of chemical treatment was decided based on the data reported in JBC(278(36), 34141-34149 in […]. OPTI-MEM was treated with chemical treatment and washed with PBS an hour before PEP1 peptide was treated and flow cytometry analysis was performed.
as §1

[6] = tested on: Huh7, bmDC, CHO, COS7; test: Flow cytometry depending on concentration in various cell lines; assay type: cell-based
Procedure: (§5) Cells were cultured at 37° C., 5% CO2 incubator and grown to 90˜100% confluence. The confluence. The medium was removed and washed with PBS, 1 mL of OPTI-MEM was added to each well and cultured at 37° C., 5% CO2 incubator for an hour for cell starvation. After washing with OPTI-MEM once, cells were treated with peptide in OPTI-MEM (concentration of […]) and FITC (concentration of 10 μM), cultured at 37° C., 5% CO2 incubator. After removing the medium, cells were washed with 1×PBS three times and harvested using Trysin/EDTA. The cellular uptake of FITC and the rest of FITC-conjugated peptide was compared and analyzed with untreated cell cells as a control.
(§6) Cell penetrating property of PEP1 was investigated by treating PEP1 with various cell various cell lines depending on concentrations and time. Specific analytical methods followed the methods described in Example 2. […] In the case of HepG2 cell line, cell penetrating property of TAT was increased whereas that of PEP1 was decreased at a concentration of 50 μM. […] When observing cell penetrating property of the peptide depending on time, the cell penetrating property was increased in Huh7, MCF7 and HeLA cell lines. Especially, in MCH7 cell line when 5 μM of the peptide was treated, cell penetrating property was increased 10 times higher in all time (FIG. 24 to FIG. 26)

[7] = tested on: MCF7 cell line; test: Flow cytometry depending on concentration and time, MCF7; assay type: cell-based, human
Procedure: as §5, §6

[8] = tested on: HepG2 cell line; test: Flow cytometry depending on concentration, HepG2; assay type: cell-based, human; details: HepG2, 50 μM
Procedure: as §5, §6

[9] = tested on: Jurkat cell line; test: Flow cytometry after chemical treatment, Jurkat; assay type: cell-based, human; details: all of the chemical treatment
[10] = tested on: human T lymphocyte; test: FACS of cell penetrating property in human T lymphocyte; assay type: cell-based
Procedure: as §2
To investigate cell penetrating property of PEP1, the peptide was treated in human T lymphocyte, and FACS (Fluorescence-activated sell sorting) was performed as flow cytometry analysis. The analytical method used was same as described in above (1) HeLa cell line analysis. […] (FIG. 11 and FIG. 12)

[11] = tested on: CHO and HepG2 cells; test: Uptake analysis of pep1-FITC in vitro by flow cytometry (primary experiment); assay type: cell-based
Procedure: Flow cytometry and Confocal microscopy analysis were performed to compare the degree of cellular uptake among differentcell lines treated with pep1 (SEQ ID NO: 1) and the previously known PTD, TAT ([…]) (SEQ ID NO: 10) of HIV.
as §5

[12] = tested on: Huh7 cell line; test: Flow cytometry of cell penetrating property in Huh7 cell line; assay type: cell-based, human
Procedure: as §2
To investigate cell penetrating property of PEP1, flow cytometry was performed in Huh7 cell line treated with PEP1. The analytical methods used were same as described in above (1) HeLa cell line analysis. […] (FIG. 9 and FIG. 10)

[13] = tested on: Huh7, MCF7 and HeLA cell lines; test: Flow cytometry depending on time; assay type: cell-based, human
Procedure: as §5, §6

[14] = tested on: THP1 (Human mononuclear cell line); test: Flow cytometry of cell penetrating property, THP1; assay type: cell-based
Description: as §4

[15] = tested on: human PBMC; test: Flow cytometry of cell penetrating property in human PBMC; assay type: cell-based
Procedure: PBMC (peripheral blood mononuclear cell) and lymphocytes were prepared from the human blood samples (50 ml) collected from healthy subjects using Biocoll Separating Solution (Biochrom AG, Berlin, Germany).
PBMC separated from human blood was used to treat the peptide depending on concentrations, temperature and time and to analyze the cell penetrating property of the peptide. […] Depending on concentrations, cell penetrating property of PEP1 was increased in both lymphocytes and the monocytes. […] (FIG. 32 to FIG. 34)

[16] = tested on: K562 cell line (Human Leukemia cell line); test: Flow cytometry of cell penetrating property, K562; assay type: cell-based
Description: as §4

[17] = tested on: Raji (Human B cell line); test: Flow cytometry of cell penetrating property, Raji; assay type: cell-based
Description: as §4

[18] = tested on: luciferase in CHO cell; test: Luciferase assay with siRNA-CPP conjugates, CHO; assay type: cell-based
Procedure: as §3
To verify cell penetrating property of pep1, siRNA for luciferase purpose was produced produced and luciferase activation was measured using Huh7 (human hepatocelular carcinoma) cells and CHO cell line. The result verified that activation of penetratine and pep1 in siRNA combined with luciferase was reduced approx. 28%, 20% compared with penetratin and pep1 in siRNA combined with control in Huh cell line. […]

## pep1-FITC: pep1 labeled with FITC at the C-terminal (lysine) (EARPALLTSRLRFIPK(FITC); listed as Homo sapiens)
[1]
  absorption after treatment with HSP70 and HSP90 specific antibodies: remarkably reduced
[1]; control antibodies
  absorption after treatment with GAPDH or Enolase specific antibodies: no effect
[2]
  penetration into the cytoplasm, C-terminal vs N-terminal FITC: higher cell penetrating property to penetrate into the cytoplasm than PEP1 combined with FITC at N-terminal

## siLuc conjugation with Mercaptoacetyl-Ahx-RQIKIWFQNRRMKWKK [siLuc-Penetratin]
[3]
  reduction of luciferase activation compared with the same peptide in siRNA combined with control: approx. 28%

## EARPALLTSRLRFIPK (listed as Homo sapiens) [pep1]
[4]; all cell lines
  cell penetrating property depending on concentrations: tendency to increase
  cell penetrating property depending on temperature: no difference
[4]; cell lines other than THP1
  increase of cell penetrating property depending on time: more than 3 times
[1]
  absorption after treatment with HSP70 and HSP90 specific antibodies: remarkably reduced
[5]
  effect of chemical treatment (MatCD and others) on cell penetrating property: tend to be suppressed
[6]
  cell penetrating property depending on concentrations: tendency to increase
[7]; MCF cell line
  cell penetrating property, times higher than TAT: 4 times
[7]; MCH7 cell line, 5 μM of the peptide, comparator not stated
  cell penetrating property, times higher in all time: 10 times
[8]
  cell penetrating property at a concentration of 50 μM: decreased
[9]
  effect of chemical treatment on cell penetrating property: tendency to suppress
[10]
  cell penetrating property, times higher than HIV derived TAT: 6 times
  cell penetrating property, times higher than control FITC: 25 times
[11]
  cell penetrating ability depending on position of FITC: best when FITC was conjugated with lysine residue in C terminal
[11]; FITC-labelled peptides
  cell penetrating ability compared with TAT: better cell penetrating ability than TAT
[12]
  cell penetrating property compared with TAT and control: lower than that of TAT but higher than that of control
[13]
  cell penetrating property depending on time: increased
[14]
  cell penetrating property depending on time: decreased over time
[15]; lymphocytes
  cell penetrating property, increase (times): 1.8 times
[15]; lymphocytes and monocytes
  cell penetrating property depending on concentrations: increased
  cell penetrating property depending on time: tendency to increase
[15]; monocytes, 5 hours
  increase of cell penetrating property compared to TAT: more than 20%
[15]; whole PBMC
  cell penetrating property depending on concentrations and time: increased
  cell penetrating property, times higher than TAT: 1.4 times

## siLuc conjugation with Mercaptoacetyl-Ahx-LRALPKRPFISRLTEA [siLuc-scrambled pep1]
[3]
  reduction of luciferase activation compared with the same peptide in siRNA combined with control: no significant difference

## YGRKKRRQRRR [TAT, reference compound]
[1]
  absorption after treatment with HSP70 and HSP90 specific antibodies: not affected
[5]
  effect of chemical treatment (MatCD and others) on cell penetrating property: increased
[6]
  cell penetrating property depending on concentrations: tendency to increase
[16]
  cell penetrating property, TAT compared with PEP1: higher cell penetrating property than PEP1
[17]
  cell penetrating property, TAT compared with PEP1: higher cell penetrating property than PEP1
[8]
  cell penetrating property at a concentration of 50 μM: increased
[9]
  effect of chemical treatment on cell penetrating property: no effect
[15]; whole PBMC
  cell penetrating property depending on concentrations and time: increased

## siLuc conjugation with Mercaptoacetyl-Ahx-YGRKKRRQRRR (not fully specified (N-terminus); printed as Mercaptoacetyl-Ahx-YGRKKRRQRRR; also: conjugated to luciferase siRNA; UniProt P04608 47-57, looked up, fragment) [siLuc-Tat(47-57)]
[3]
  reduction of luciferase activation compared with the same peptide in siRNA combined with control: no significant difference

## siLuc conjugation with Mercaptoacetyl-Ahx-EARPALLTSRLRFIPK (EARPALLTSRLRFIPK-OH; not fully specified (N-terminus); printed as Mercaptoacetyl-Ahx-EARPALLTSRLRFIPK; also: conjugated to luciferase siRNA; UniProt O14746 611-626, looked up, fragment) [siLuc-pep1, luciferase siRNA conjugated to pep1 via thiol-maleimide]
[3]
  reduction of luciferase activation compared with the same peptide in siRNA combined with control: ~20%
[18]
  inhibition of luciferase activity: about 30%
